Data taken from patent publication US7084169B2, “Aminoalkoxyindoles and methods of use” (Roche Palo Alto LLC, priority 2002, dated 2006).

biological target: T1, recombinant human 5-HT6 receptor (Homo sapiens, UniProt P50406); experiment: Radioligand binding studies, competition for [3H]LSD binding in HEK293 cell membranes; details: [3H]LSD (5 nM), membranes of HEK293 cells stably expressing recombinant human 5-HT6 receptor, pH 7.4, 37° C., 60 min; read-out: 5-HT6 affinity values (pKi) (converted)
T1 construct: expressed in transfected cells; membranes used
T1 sequence (P50406 whole entry): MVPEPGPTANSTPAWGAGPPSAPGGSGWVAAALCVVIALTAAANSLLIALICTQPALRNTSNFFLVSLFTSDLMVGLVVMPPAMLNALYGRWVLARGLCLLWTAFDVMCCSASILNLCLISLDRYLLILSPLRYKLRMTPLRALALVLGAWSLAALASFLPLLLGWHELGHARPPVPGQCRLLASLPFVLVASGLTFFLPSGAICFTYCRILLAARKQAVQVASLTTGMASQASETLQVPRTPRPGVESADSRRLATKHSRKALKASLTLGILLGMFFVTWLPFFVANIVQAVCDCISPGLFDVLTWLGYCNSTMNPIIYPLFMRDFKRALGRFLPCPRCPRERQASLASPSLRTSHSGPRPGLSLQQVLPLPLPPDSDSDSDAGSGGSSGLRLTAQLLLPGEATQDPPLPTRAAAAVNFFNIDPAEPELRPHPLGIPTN
Method: The binding activity of compounds of this invention in vitro was determined as follows. Duplicate determinations of ligand affinity are made by competing for binding of [^3H]LSD in cell membranes derived from HEK293 cells stably expressing recombinant human 5-HT6 receptor.
All determinations were made in assay buffer containing 50 mM Tris-HCl, 10 mM MgSO4, 0.5 mM EDTA, 1 mM ascorbic acid, pH 7.4 at 37° C., in a 250 microliter reaction volume. Assay tubes containing [^3H] LSD (5 nM), competing ligand, and membrane were incubated in a shaking water bath for 60 min. at 37° C., filtered onto Packard GF-B plates (pre-soaked with 0.3% PEI) using a Packard 96 well cell harvester and washed 3 times in ice cold 50 mM Tris-HCl. Bound [^3H] LSD was determined as radioactive counts per minute using Packard TopCount.
Displacement of [3H]LSD from the binding sites was quantified by fitting concentration-binding data to a 4-parameter logistic equation:
[formula] where Hill is the Hill slope, [ligand] is the concentration of competing radioligand and IC50 is the concentration of radioligand producing half-maximal specific binding of radioligand. The specific binding window is the difference between the Bmax and the basal parameters.

Row | Structure (SMILES) | Ki
1 | O=S(=O)(c1ccccc1Cl)c1c[nH]c2c(OCCN3CCCC3)cccc12 [3-(2-Chloro-benzenesulfonyl)-7-(2-pyrrolidin-1-yl-ethoxy)-1H-indole] | 3.98 nM
2 | O=S(=O)(c1ccc(Cl)c(Cl)c1)c1c[nH]c2c(OCCN3CCCC3)cccc12 [3-(3,4-Dichloro-benzenesulfonyl)-7-(2-pyrrolidin-1-yl-ethoxy)-1H-indole] | 20 nM
3 | O=S(=O)(c1cccc(Cl)c1)c1c[nH]c2c(OCCN3CCCC3)cccc12 [3-(3-Chloro-benzenesulfonyl)-7-(2-pyrrolidin-1-yl-ethoxy)-1H-indole] | 5.01 nM
4 | O=S(=O)(c1ccccc1)c1c[nH]c2c(OCCN3CCCC3)cccc12 [3-Benzenesulfonyl-7-(2-pyrrolidin-1-yl-ethoxy)-1H-indole] | 20 nM
